This passage reports XC50 results from ChEMBL document CHEMBL1157539, “Thousands of chemical starting points for antimalarial lead identification” (Nature, 2010).

For the assay, the system named is Plasmodium falciparum. In words: GSK_TCMDC: Inhibition of Plasmodium falciparum 3D7 in whole erythrocytes, using parasite LDH activity as an index of growth. In kind it is functional, organism-based. The settings on record: Plasmodium falciparum, 3D7.
In turn, `O=C(Cc1ccc([N+](=O)[O-])cc1)N1CCc2cc3nccc(N4CCN5CCC[C@@H]5C4)c3cc21` showed an XC50 of 0.843 µM.
As for `CCCCOc1ccccc1C(=O)NCc1csc(-c2ccccc2)n1`, the figure is 0.556 µM.
The same measure for `CCCc1cc(NCC)nc(Nc2ccc(F)cc2)n1`: 1.03 µM; for `Clc1ccc(-c2cc(-c3csc(Nc4ccncc4)n3)on2)cc1`: 0.133 µM; for `C=C(C)C1CC=C(CN2CCCC(n3ccc4cc(NC(=O)c5ccco5)ccc43)CC2)CC1` (configuration not stated): 0.753 µM.
In the case of `CCc1cc(-c2onc(C)c2-c2cc3ccccc3o2)c(O)cc1OC`, the XC50 is 0.969 µM.
For `CCCCCCNC(=O)C1Cc2c([nH]c3ccccc23)C2(CCN(CCc3ccccc3)CC2)N1` (configuration not stated), the XC50 turned out to be 1.14 µM.
The same measure for `CN(C1CCC(NC(=O)/C=C/c2ccccc2)CC1)C1CC2(CCN(C(=O)OC(C)(C)C)CC2)c2ccccc21` (configuration not stated): 0.822 µM; for `COc1ccc2nccc([C@@H](O)CN3CCC(NCc4cc5ccc(Cl)cc5[nH]4)CC3)c2c1`: 0.121 µM; for `Nc1nc(N)c2c(ccc3c2ccn3C2CCCCC2)n1`: 0.123 µM.
Consider `COc1ccccc1C1CCN(C2CCC(NC(=O)/C=C/c3cc(F)cc(C(F)(F)F)c3)CC2)CC1` (configuration not stated), for which the XC50 came out at 0.901 µM.
The same measure for `O=C(N[C@H](Cc1ccc(Cl)cc1)C(=O)N1CCN(c2ccnc3cc(Cl)ccc23)CC1)[C@H]1Cc2ccccc2CN1`: 0.424 µM; for `Cc1cccc2nc(-c3ccc(-c4cccc(CNCC5CCCO5)c4)cc3)[nH]c12` (configuration not stated): 0.7 µM.
`CC(C)Cn1c(Sc2ccc(C#N)c([N+](=O)[O-])c2)nnc1-c1cccs1`: the XC50 is 1.08 µM.
The same measure for `CC(Cc1ccc(OCCN2CCN(c3ccc(Cl)cc3)CC2)cc1)NCC(O)c1cccc(C(F)(F)F)c1` (configuration not stated): 0.807 µM; for `N#Cc1ccc(-c2ccc(C(=O)NCCCCN3CCC(c4ccc5c(c4OCc4ccccn4)CCCC5)CC3)cc2)cc1`: 0.824 µM; for `CN(C)S(=O)(=O)c1cc(-c2ccc3nccc(-c4cccc(S(N)(=O)=O)c4)c3c2)cnc1N`: 0.251 µM.
As for `CNc1ccc(CNCc2cccc(-c3ccc(-c4nc5cccc(C)c5[nH]4)cc3)c2)cc1`, the figure is 0.66 µM; as for `CC[C@H]1CN2CC[C@H]1C[C@H]2[C@H](O)c1cc(-c2ccc(SC)cc2)nc2ccc(OC)cc12`, 0.0641 µM.
The same measure for `N#Cc1ccc(-c2ccc(OCC(O)CN3CCCN(Cc4cccc(O)c4Cl)CC3)cc2)cc1` (configuration not stated): 0.69 µM; for `O=C1CSc2ccc(CNC3CCN(CCc4c(Cl)cnc5ccc(Cl)cc45)CC3)nc2N1`: 0.229 µM; for `CCOC(=O)c1nc(-c2cccc(F)c2)[nH]c1N`: 0.748 µM.
As to `COc1ccccc1CCN(C)CCN1CCC(NC(=O)c2ccc(-c3ccc(C(F)(F)F)cc3)cc2)CC1`, the XC50 was found to be 1.03 µM.
The same measure for `O=C(/C=C/c1ccc(-c2ccccc2)cc1)NCCCCCN1CCC(c2c[nH]c3ccccc23)CC1`: 0.854 µM; for `Cc1[nH]c(C)c(-c2ccc(-c3cccc(Cl)c3)nc2)c(=O)c1Cl`: 0.186 µM; for `CCNc1cc(C(=O)N[C@@H](Cc2ccccc2)[C@H](O)CNC(C)(C)CSCC(C)C)cc(N2CCCC2=O)c1`: 0.26 µM.
Turning to `N#Cc1ccc(OCCN(Cc2ccccc2C(F)(F)F)c2ccc(C#N)c(C(F)(F)F)c2)cc1`, the XC50 amounted to 0.277 µM.
`CCc1cn(CCc2ccccc2)c2ccc(C(=O)N[C@@H](Cc3ccccc3)[C@H](O)CNC(C)(C)CCCC(C)C)cc12` returned an XC50 of 0.219 µM.
As for `O=C(Nc1cccc(F)c1)c1ccc(C(=O)NC2CCN(CC3CCCCC3)C2)cc1` (configuration not stated), the figure is 0.929 µM; as for `CCCCN1C(=O)C2CC(=O)CC(C3CCCCC3)C2C1=O` (configuration not stated), 0.888 µM.
The same measure for `N#Cc1ccc(-c2ccc(C(=O)NCCCCN3CCC(c4ccncc4)CC3)cc2)cc1`: 0.813 µM; for `C[C@H](NC(=O)C1CCCC1)C(=O)Nc1ccc(-c2ccc(-c3nc4cc(C(F)(F)F)ccc4[nH]3)cc2)cc1`: 0.272 µM.
In turn, `CCOC(=O)NOC(C(=O)O)c1ccccc1` (configuration not stated) came in with an XC50 of 0.189 µM.
The same measure for `CC1CN(Cc2cccc(-c3ccc(-c4nc5ccccc5[nH]4)cc3)c2)CC(C)O1` (configuration not stated): 0.857 µM; for `CN(C)CCOc1ccc(-c2cc(-c3ccncc3)c(-c3ccc(Cl)c(O)c3)[nH]2)cc1`: 0.224 µM; for `Clc1cccc(Nc2ccc3c(N4CCCCC4)ncnc3n2)c1`: 0.577 µM.
As for `CN(C)CCCn1cncc1-c1ccc2ncnc(Nc3ccc4c(cnn4Cc4ccccc4)c3)c2c1`, the figure is 0.726 µM; as for `CN(C)C(S)=NN=Cc1cccc(O)c1O`, 0.872 µM; as for `COc1ccc(C[C@@H](C)NC[C@H](O)c2cccc(Cl)c2)cc1F`, 0.867 µM.
The same measure for `CN(C)c1ccnc2ccc(NC(=O)Nc3ccnc4ccccc34)cc12`: 0.133 µM; for `Cc1cc(Cl)c(S(=O)(=O)NC(C)(C)C)cc1OCC(=O)NC1CCCCC1`: 0.548 µM.
In turn, `Cc1cnc(N2CCN(CC3CCN(C)CC3)CC2)nc1Oc1ccc(-n2ccnc2)cc1` displayed an XC50 of 0.725 µM.
As for `CNc1ccc(CNCc2cccc(-c3ccc(-c4nc5cc(C(F)(F)F)ccc5[nH]4)cc3)c2)cc1`, the figure is 0.112 µM; as for `Fc1ccc2[nH]c(-c3cccc(-c4cccc(CNCCN5CCNCC5)c4)c3)nc2c1`, 0.842 µM; as for `COc1cc(C=Cc2ccc3ccccc3n2)cc(Br)c1OCC(=O)N(C)C`, 1.1 µM.
Consider `CCN(CC)CCCN(C(=O)c1cc2c(C)nn(-c3ccccc3)c2s1)c1nc(-c2ccc(OC)cc2)cs1`, for which the XC50 was found to be 1.15 µM.
As for `Cc1nc(-c2ccc(-c3ccc(NC(=O)Nc4ccc(I)c(OCCN(C)C)c4)cc3)c(C)c2)no1`, the figure is 0.372 µM.
As for `CSC1=NC(C)(C)CC2(CC(c3cccc(C)c3)c3cc(Cl)c(O)cc3O2)N1` (configuration not stated), the figure is 0.879 µM.
As for `CS(=O)(=O)c1ccc(CNCc2cccc(-c3cccc(-c4nc5ccccc5[nH]4)c3)c2)cc1`, the figure is 0.59 µM; as for `FC(F)(F)c1ccc2[nH]c(-c3ccc(-c4ccc(CNCc5cnn(-c6ccccc6)n5)cc4)s3)nc2c1`, 0.456 µM.
The compound `Nc1nc(Nc2ccc(Cl)cc2)nc2ccccc12` registered an XC50 of 0.732 µM.
As for `CS(=O)(=O)c1ccc(CNCc2ccc(-c3cccc(-c4nc5cc(C(F)(F)F)ccc5[nH]4)c3)cc2)cc1`, the figure is 0.138 µM; as for `O=C(NCC1CCN(C/C=C/c2ccccc2)CC1)Nc1ccc(Oc2ccccc2)cc1`, 1.04 µM.
The same measure for `COc1cc(OC)cc(C(=O)Nc2ccc(Nc3nc(C)cc(N(C)C)n3)cc2)c1`: 0.646 µM; for `O=c1n[n+](C2CCCCC2)[n-]o1`: 0.934 µM; for `Cc1nc(C)c(-c2ccc(Cl)cc2)c(O)c1I`: 0.674 µM.
As for `COc1ccc2c(=NN=Cc3cccc(F)c3)cc(C)[nH]c2c1`, the figure is 0.777 µM; as for `OCC1CCN(Cc2ccc(-c3cccc(-c4nc5ccccc5[nH]4)c3)cc2)CC1`, 0.813 µM.
`CCCCN(CCCC)CCC(O)C(=Cc1ccc(Cl)cc1Cl)c1ccc(C(F)(F)F)cc1N` (configuration not stated) came in with an XC50 of 0.193 µM.
As to `Oc1cc2c(cc1CN1CCN(Cc3ccccc3)CC1)CCC2`, the XC50 was 0.721 µM.
`COc1cccc(CN2CCCN(Cc3cccc(NC(=O)c4ccc(Cl)c(Cl)c4)c3)CC2)c1` showed an XC50 of 1.46 µM.
Compound `N#Cc1cccc(NC(=O)Nc2cccc(-c3cccc(-c4nc5cc(C(F)(F)F)ccc5[nH]4)c3)c2)c1` had an XC50 of 0.224 µM.
As for `COc1ccc(CNC2CCN(C)CC2)cc1-c1ccc(S(=O)(=O)NCc2ccccc2)s1`, the figure is 0.23 µM.
As for `Cc1ccc(C2CC(=O)CC(c3ccccn3)C2[N+](=O)[O-])cc1` (configuration not stated), the figure is 0.859 µM; as for `Cc1c(C)c2c(c(C)c1O)CC[C@](C)(C(=O)N1CCC(CCN3CCC(c4c[nH]c5ccccc45)CC3)CC1)O2`, 0.834 µM; as for `O=C(Nc1ccc2c(c1)OCCO2)c1cc(-c2cccnc2)nc2ccc(Cl)cc12`, 0.714 µM.
The same measure for `CCCNCc1ccc(-c2ccc(CN(CCOC)C(=O)Cc3cccnc3)cc2)nc1`: 0.823 µM; for `Cc1ccccc1C1CCN(C2CCC(NC(=O)c3csc(-c4cccc(Cl)c4)n3)CC2)CC1` (configuration not stated): 1.15 µM; for `N=C(N)NC(=O)Nc1ccc(Cl)c(Cl)c1`: 1.04 µM.
For the compound `Cc1cccc2nc(-c3ccc(-c4cccc(CNCCc5ccncc5)c4)cc3)[nH]c12`, the XC50 was 0.204 µM.
As for `Fc1ccc2c(NN=Cc3ccc(Cl)cc3)ccnc2c1`, the figure is 0.754 µM; as for `Cc1ccc(CC(C)NCC(O)c2cccc(C(F)(F)F)c2)c(C)c1` (configuration not stated), 0.703 µM.
As for `CC(=O)Nc1nc(C(=O)Nc2ccc(-c3cccc(-c4nc5ccccc5[nH]4)c3)cc2)cs1`, the figure is 0.552 µM.
As for `Cc1ccc(NC(=O)c2ccc(CN3CCCN(CC4CCCCC4)CC3)cc2)cc1`, the figure is 0.797 µM; as for `CN(C)c1ccc(CN2CCC(CNC(=O)c3cc(-c4cccc(F)c4)cs3)C2)cc1` (configuration not stated), 1.02 µM.
Take `Cc1cc(N2CCCC2)nc(Nc2ccc(NC(=O)C3CCCC3)cc2)n1`: the XC50 was found to be 1.11 µM.
The same measure for `Cn1cncc1C(=O)Nc1cccc(-c2cccc(-c3nc4cc(C(F)(F)F)ccc4[nH]3)c2)c1`: 0.205 µM.
The same measure for `CN1CCN(c2cccc(-c3nnc(-c4ccc(OCC(=O)NCc5cccc(C(F)(F)F)c5)c([N+](=O)[O-])c4)o3)c2)CC1`: 0.962 µM; for `Cc1nc(-c2nc(NCCc3ccncc3)ncc2-c2ccsc2)sc1C`: 0.298 µM; for `Cc1noc(C)c1C(=O)N1CCCC(c2[nH]c3c(C)cccc3c2-c2ccncc2)C1` (configuration not stated): 0.843 µM.
The same measure for `Cc1c(F)cc(C(=O)NC2CC2)cc1-c1ccc2c(cnn2S(=O)(=O)c2ccc(F)c(F)c2)c1`: 0.265 µM; for `COc1ccccc1C1CCN(C2CCC(NC(=O)/C=C/c3cccc(C(F)(F)F)c3)CC2)CC1` (configuration not stated): 0.806 µM.
Compound `CC(C)NCc1cccc(-c2ccc(NC(=O)c3cccc(C#N)c3)cc2)c1` displayed an XC50 of 0.324 µM.
The compound `O=C(Nc1ccc(-c2ccccc2)cc1)Nc1cccc(Cn2nc(Cl)c(N3CCCNCC3)cc2=O)c1` registered an XC50 of 0.676 µM.
The same measure for `CC1(C)OC[C@]2(C)[C@@H](CC[C@]3(C)C4=CC(=O)CCC4CC[C@@H]23)O1` (some centres not stated): 0.282 µM; for `N#Cc1cccc(CN(Cc2ccc(Cl)c(Cl)c2)S(=O)(=O)c2cccc([N+](=O)[O-])c2)c1`: 0.808 µM; for `CC(Nc1ccnc2cc(Cl)ccc12)c1ccc(S(N)(=O)=O)cc1` (configuration not stated): 0.933 µM.
